Experimental data: ChEMBL document CHEMBL1201862, “PubChem BioAssay data set” (2004)
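Tested at 5 concentrations; 48 h exposure; 96-well plates; endpoints linearly interpolated, else capped at highest concentration. GI50: concentration for 50% inhibition of growth.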 Active and inactive are the calls of the source. No stated cut-off is given here; in the data, active = GI50 up to about 1.1 µM and inactive = higher.

Key:
Assay in all cases: DTP human tumour cell line panel, 48 h
[1] = tested on: Hs-578T
[2] = tested on: OVCAR-4
[3] = tested on: PC-3
[4] = tested on: KM12
[5] = tested on: M14
[6] = tested on: 786-0
[7] = tested on: CCRF-CEM
[8] = tested on: ACHN
[9] = tested on: SK-MEL-2
[10] = tested on: IGROV-1
[11] = tested on: SK-OV-3
[12] = tested on: UACC-257
[13] = tested on: SN12C
[14] = tested on: MOLT-4
[15] = tested on: NCI-H23
[16] = tested on: MDA-MB-435
[17] = tested on: HCC 2998
[18] = tested on: HCT-15
[19] = tested on: RPMI-8226
[20] = tested on: HT-29
[21] = tested on: MDA-MB-231
[22] = tested on: UACC-62
[23] = tested on: NCI-H522
[24] = tested on: SF-295
[25] = tested on: NCI-H460
[26] = tested on: U-251
[27] = tested on: MCF7
[28] = tested on: OVCAR-8
[29] = tested on: SNB-19
[30] = tested on: T47D
[31] = tested on: A549
[32] = tested on: SK-MEL-5
[33] = tested on: NCI/ADR-RES
[34] = tested on: OVCAR-3
[35] = tested on: CAKI-1
[36] = tested on: HOP-92
[37] = tested on: COLO 205
[38] = tested on: SNB-75
[39] = tested on: SF-539
[40] = tested on: A498
[41] = tested on: HCT-116
[42] = tested on: SW-620
[43] = tested on: LOX IMVI
[44] = tested on: HOP-62
[45] = tested on: NCI-H226
[46] = tested on: RXF 393
[47] = tested on: EKVX
[48] = tested on: BT-549
[49] = tested on: OVCAR-5
[50] = tested on: DU-145
[51] = tested on: Malme-3M
[52] = tested on: K562
[53] = tested on: MDA-N
[54] = tested on: SR
[55] = tested on: TK-10
[56] = tested on: SK-MEL-28
[57] = tested on: HL-60
[58] = tested on: SF-268
[59] = tested on: UO-31

Cc1ccc(NC(=O)CSc2nc(C)nc3c2sc(=S)n3-c2ccccc2)cc1
GI50 [1]: 2.66 µM (inactive) | GI50 [2]: 2.2 µM (inactive) | GI50 [3]: > 10 µM (inactive) | GI50 [4]: > 10 µM (inactive) | GI50 [5]: 2.79 µM (inactive) | GI50 [6]: 2.37 µM (inactive) | GI50 [7]: 9.23 µM (inactive) | GI50 [8]: 8.77 µM (inactive) | GI50 [9]: > 10 µM (inactive) | GI50 [10]: > 10 µM (inactive) | GI50 [11]: 8.2 µM (inactive) | GI50 [12]: > 10 µM (inactive) | GI50 [13]: 6.49 µM (inactive) | GI50 [14]: > 10 µM (inactive) | GI50 [15]: > 10 µM (inactive) | GI50 [16]: 4.06 µM (inactive) | GI50 [17]: > 10 µM (inactive) | GI50 [18]: > 10 µM | GI50 [19]: > 10 µM (inactive) | GI50 [20]: 7.36 µM (inactive) | GI50 [21]: 6.3 µM (inactive) | GI50 [22]: > 10 µM (inactive) | GI50 [23]: > 10 µM (inactive) | GI50 [24]: 5 µM (inactive) | GI50 [25]: 5.48 µM (inactive) | GI50 [26]: 3.84 µM (inactive) | GI50 [27]: > 10 µM (inactive) | GI50 [28]: 6.76 µM (inactive) | GI50 [29]: 5.37 µM (inactive) | GI50 [30]: > 10 µM (inactive) | GI50 [31]: > 10 µM (inactive) | GI50 [32]: > 10 µM (inactive) | GI50 [33]: 4.7 µM (inactive) | GI50 [34]: 5.37 µM (inactive) | GI50 [35]: > 10 µM (inactive) | GI50 [36]: 2.71 µM (inactive) | GI50 [37]: 6.15 µM (inactive) | GI50 [38]: 2.32 µM (inactive) | GI50 [39]: 3.01 µM (inactive) | GI50 [40]: > 10 µM (inactive) | GI50 [41]: 4.24 µM (inactive) | GI50 [42]: > 10 µM (inactive) | GI50 [43]: > 10 µM (inactive) | GI50 [44]: 2.29 µM (inactive) | GI50 [45]: 3.33 µM (inactive) | GI50 [46]: 1.79 µM (inactive) | GI50 [47]: 5.08 µM (inactive) | GI50 [48]: 4.09 µM (inactive) | GI50 [49]: > 10 µM (inactive) | GI50 [50]: > 10 µM (inactive) | GI50 [51]: 7.8 µM (inactive) | GI50 [52]: > 10 µM (inactive) | GI50 [53]: > 10 µM (inactive) | GI50 [54]: 9.89 µM (inactive) | GI50 [55]: > 10 µM (inactive) | GI50 [56]: > 10 µM (inactive) | GI50 [57]: > 10 µM (inactive) | GI50 [58]: 6.14 µM (inactive)

CCCn1c2c(c3ccccc3c1=O)C(=O)c1ccccc1-2
GI50 [1]: 44.5 µM (inactive) | GI50 [2]: > 100 µM (inactive) | GI50 [3]: > 100 µM (inactive) | GI50 [4]: 20.7 µM (inactive) | GI50 [5]: 68.1 µM (inactive) | GI50 [6]: 16.4 µM (inactive) | GI50 [7]: > 56.2 µM (inactive) | GI50 [8]: 53.6 µM (inactive) | GI50 [9]: > 100 µM (inactive) | GI50 [10]: > 57.7 µM (inactive) | GI50 [11]: > 100 µM (inactive) | GI50 [12]: > 100 µM (inactive) | GI50 [13]: > 62.4 µM (inactive) | GI50 [14]: 3.61 µM (inactive) | GI50 [15]: > 68.9 µM (inactive) | GI50 [16]: > 100 µM (inactive) | GI50 [17]: > 100 µM (inactive) | GI50 [19]: > 28.8 µM (inactive) | GI50 [20]: > 29.8 µM (inactive) | GI50 [21]: > 40.4 µM (inactive) | GI50 [22]: > 100 µM (inactive) | GI50 [23]: 2.37 µM (inactive) | GI50 [24]: > 80.5 µM (inactive) | GI50 [25]: 7.23 µM (inactive) | GI50 [26]: > 61.8 µM (inactive) | GI50 [27]: > 42.4 µM (inactive) | GI50 [28]: 61.1 µM (inactive) | GI50 [29]: > 100 µM (inactive) | GI50 [30]: > 54.1 µM (inactive) | GI50 [31]: 36.4 µM (inactive) | GI50 [59]: > 19.7 µM (inactive) | GI50 [32]: 11.2 µM (inactive) | GI50 [33]: > 100 µM (inactive) | GI50 [34]: > 100 µM (inactive) | GI50 [35]: 48.3 µM (inactive) | GI50 [36]: > 57.4 µM (inactive) | GI50 [37]: > 54.6 µM (inactive) | GI50 [38]: > 48.8 µM (inactive) | GI50 [39]: > 55.2 µM (inactive) | GI50 [40]: > 48.4 µM (inactive) | GI50 [41]: 25.2 µM (inactive) | GI50 [42]: > 53.5 µM (inactive) | GI50 [43]: > 100 µM (inactive) | GI50 [44]: 14.1 µM (inactive) | GI50 [45]: > 46.5 µM (inactive) | GI50 [46]: 82.4 µM (inactive) | GI50 [47]: > 76.7 µM (inactive) | GI50 [48]: > 100 µM (inactive) | GI50 [49]: > 100 µM (inactive) | GI50 [50]: > 48.2 µM (inactive) | GI50 [51]: 76.7 µM (inactive) | GI50 [52]: > 100 µM (inactive) | GI50 [53]: > 100 µM (inactive) | GI50 [54]: 5.14 µM (inactive) | GI50 [55]: 61.8 µM (inactive) | GI50 [56]: > 68.9 µM (inactive) | GI50 [57]: 1.78 µM (inactive) | GI50 [58]: > 73.1 µM (inactive)
